Test results reported in patent US20190093079A1, “METHODS FOR CONTROLLED PROLIFERATION OF STEM CELLS / GENERATING INNER EAR HAIR CELLS USING GSK-3-ALPHA INHIBITORS” (Frequency Therapeutics, Inc., priority 2016, published 2019).
Entries after “also recorded” stand apart in the source; their conditions may differ.

Tests used:
[1] = test system: Lgr5-GFP inner ear progenitor cells; assay: Expansion of Lgr5-GFP inner ear progenitor cells in Matrigel 3D culture; type: cell-based, mouse; details: 10 days culture, background of EGF, bFGF, IGF-1 and VPA; FIGS. 1A and 2A
Method: Isolation of stem cells from the inner ear: All animal studies were conducted under an approved institutional protocol according to National Institutes of Health guidelines. For experiments with neonatal mice (postnatal days 1-3), the cochleae were dissected in HBSS and the organ of Corti was separated from the stria vascularis and the modiolus. The organs of Corti were then treated with Cell Recovery Solution (Corning) for 1 h to separate cochlear epithelium from the underlying mesenchyme. Epithelia were then collected and treated with TrypLE (Life Technologies) for 15-20 minutes at 37° C. Single cells obtained by mechanical trituration were filtered (40 μm) and suspended in Matrigel (Corning) for 3D culture.
Cells were cultured in a 1:1 mixture of DMEM and F12, supplemented with Glutamax (GIBCO), N2, B27 (Invitrogen), EGF (50 ng/mL; Chemicon), bFGF (50 ng/mL; Chemicon), IGF1 (50 ng/mL; Chemicon) and a GSK3-alpha inhibitor. […]
Lgr5-positive cells were quantified after 10 days (D10) in culture in multiple conditions. […] The cells were then stained with propidium iodide (PI) and analyzed using a flow cytometer for Lgr5-GFP expression. The number of GFP-positive cells and the percentage of GFP-positive cells were quantified. […]
Lgr5 cell quantification: Cell culture media was removed and Tryple was added. […] Live Lgr5-GFP cell number was counted using PI staining and the Lgr5-GFP.

GSK3-alpha [2] = molecular target: T1, GSK3-alpha (Homo sapiens, UniProt P49840); details: cited from earlier work; for IC50: potency = IC50, literature values
T1 sequence (P49840 whole entry, species assumed): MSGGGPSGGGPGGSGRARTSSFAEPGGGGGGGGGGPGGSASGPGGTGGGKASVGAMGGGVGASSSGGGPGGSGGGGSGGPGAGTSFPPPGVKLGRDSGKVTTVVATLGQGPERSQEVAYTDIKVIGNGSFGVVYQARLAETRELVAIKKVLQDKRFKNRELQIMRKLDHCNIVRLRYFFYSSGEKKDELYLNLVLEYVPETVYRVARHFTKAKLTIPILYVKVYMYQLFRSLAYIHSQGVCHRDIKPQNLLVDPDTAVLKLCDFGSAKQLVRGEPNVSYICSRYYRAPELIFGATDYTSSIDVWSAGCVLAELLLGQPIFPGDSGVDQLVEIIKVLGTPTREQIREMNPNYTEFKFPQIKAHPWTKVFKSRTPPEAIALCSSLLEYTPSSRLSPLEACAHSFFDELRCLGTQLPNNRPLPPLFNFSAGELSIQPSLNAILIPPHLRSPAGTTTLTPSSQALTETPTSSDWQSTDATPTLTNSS

GSK3-alpha [3] = molecular target: T1, GSK3-alpha; assay: GSK3-alpha potency (IC50), kinase assay; type: biochemical; details: GSK3-alpha/GSK3-beta selectivity ratio = IC50 GSK3-beta divided by IC50 GSK3-alpha
GSK3-beta = GSK3-beta (Homo sapiens, UniProt P49841); details: potency = IC50; literature values; cited from earlier work
GSK3-beta, sequence (P49841 whole entry, species assumed): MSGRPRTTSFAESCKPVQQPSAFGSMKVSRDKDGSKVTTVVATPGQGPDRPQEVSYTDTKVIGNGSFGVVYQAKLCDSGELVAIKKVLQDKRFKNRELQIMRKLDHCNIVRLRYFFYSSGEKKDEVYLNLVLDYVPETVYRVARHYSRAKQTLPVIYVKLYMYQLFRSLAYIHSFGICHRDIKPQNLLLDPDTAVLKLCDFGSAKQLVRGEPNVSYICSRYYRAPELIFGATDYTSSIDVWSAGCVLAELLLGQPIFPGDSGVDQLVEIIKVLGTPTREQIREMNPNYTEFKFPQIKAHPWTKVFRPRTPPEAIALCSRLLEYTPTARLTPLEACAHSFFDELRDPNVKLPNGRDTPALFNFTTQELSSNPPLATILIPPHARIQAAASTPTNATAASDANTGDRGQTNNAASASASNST

[4] = test system: organ of Corti isolated from Lgr5-GFP mice; assay: Cochlear explant: organ of Corti treated ex vivo; type: cell-based, mouse
Method: For cochlear explant studies, organ of Corti isolated from Lgr5-GFP mice were treated with either CHIR99021+VPA or GSK3-inhibitor XXII+VPA for 3 days. Organ of Corti were plated on a cover slip and bathed in media containing the drugs. Growth factors were not present. CHIR99021 (3 uM), GSK3-inhibitor XXII (0.3 uM), VPA (1 mM).

noise-damaged inner ear = assay: Hearing recovery (ABR threshold) in noise damaged CBA/CaJ mice; type: in vivo; details: trans-tympanic Poloxamer gel 24 h after noise exposure, ABR at 30 days, 5-40 kHz; FIG. 4
Method: For the mouse studies, a 17-19% (w/w) stock solution of poloxamer 407 gel (Sigma-Aldrich) was prepared by slowly adding it to cold 1× phosphate-buffered saline at pH 7.4. This solution is liquid when refrigerated or at room temperature but solidifies at body temperature. The gel was tinted blue with Evans blue dye (50 ppm) for visualization during administration.
A formulation was then prepared with 87.6 mg/ml VPA and 55.6 mg/ml CHIR99021 or 87.6 mg/ml VPA and 50 mg/ml GSK3 inhibitor XXII in 17-19% Poloxamer 407 with 5% DMSO.
CBA/CaJ mice were deafened in a noise chamber by exposure to an 8-16 kHz octave band noise band for 2 hours at 120 dB SPL. 24 hours after noise exposure, their hearing was assessed by measuring auditory brainstem responses (ABRs). The minimum sound pressure level (SPL) required for visual detection of ABR Wave I was determined at 5, 10, 20, 28.3, and 40 kHz. Following ABR measurements, a trans-tympanic injection of a Poloxamer gel drug mixture was delivered to fill the middle ear cavity. After 30 days, ABR was assessed and the improvement in hearing threshold from 24 hrs to 30 days after noise exposure was determined.

SMILES	Expansion of Lgr5-GFP cells / Lgr5-GFP+ colonies [1]	GSK3α versus GSK3β inhibition preference (GSK3-alpha [2])	IC50 (GSK3-alpha [2])	IC50 (GSK3-beta)	also measured
N#Cc1ccc2[nH]c(O)c(-c3ccc(CN4CCOCC4)cn3)c2c1 [AZD1080]	large colonies of Lgr5-GFP+ cells were observed	preferentially inhibits GSK3α			
COc1ccccc1[C@@H]1C2=C(CC(C)(C)CC2=O)Nc2n[nH]c(C(F)(F)F)c21 [BRD1172]			3 nM	10 nM	Ratio of Alpha to Beta (GSK3-alpha [3]): 3.3
Cc1c[nH]c(-c2cnc(NCCNc3ccc(C#N)cn3)nc2-c2ccc(Cl)cc2Cl)n1 [CHIR99021]		preferentially inhibits GSK3β			
Cc1ccc(C(=O)Nc2c[nH]nc2C(=O)NCCCOC(C)C)cn1 [GSK-3b XXII]	large colonies of Lgr5-GFP+ cells were observed	equally inhibits GSK3α and GSK3β	2.3 nM		Lgr5-GFP expression in organ of Corti ([4]; 3 days, 0.3 uM with VPA 1 mM, FIG. 3): increased Lgr5-GFP expression; rows of inner hair cells ([4]; 3 days, normal 1 row, FIG. 3): 2 rows; rows of outer hair cells ([4]; 3 days, normal 3 rows, FIG. 3): 6 rows; hair cell number in organ of Corti ([4]; in combination with VPA, FIG. 3, listed as GSK3 inhibitor XXII): increase in hair cell number; also recorded: increased number of hair cells; hearing recovery (noise-damaged inner ear): evidence of hearing recovery
O=C1NC(=O)[C@@H](c2cn3c4c(cccc24)CCC3)[C@@H]1c1c[nH]c2ccccc12 [Tivantinib]			659 nM	1870 nM	
